Values of other authors, collected in patent publication US5279834A, “Pharmaceutical or cosmetic composition containing hydroquinone and kojic acid” (priority 1987, dated 1994).

Conditions: background statement; The Journal of Investigative Dermatology 73, 354-358 (1979)

In the case of `CC1=C(/C=C/C(C)=C/C=C/C(C)=C/C(=O)O)C(C)(C)CCC1` [vitamin A acid], the irritant character is given as “well known for its irritant character”.
